Reference: patent US7994219B2, “Approach to anti-microbial host defense with molecular shields with lipoxin compounds” (The Brigham and Women's Hospital, Inc., priority 2001, dated 2011)

Key:
BPI [1] = test: RT-PCR of BPI transcript in OKF6, T84 and Caco2 epithelial cells; assay type: cell-based, human
BPI [2] = test: Quantitative genechip microarray transcriptional profile of KB epithelial cells exposed to ATLa; assay type: cell-based, human; conditions: 1 μM ATLa
bacteria = test: Direct incubation of ATLa or anti-BPI with bacteria and colony counts; assay type: cell-based; conditions: direct incubation with bacteria, no epithelial cells; data not shown
Salmonella typhimurium = test: Bacterial killing assay: adherent Caco2 cells with Salmonella typhimurium (CFU); assay type: cell-based; conditions: Caco2 pre-exposure to 1 μM ATLa, 24 hr; killing over 60 min
Experimental: Salmonella typhimurium (strain 14028 from American Type Culture Collection, Rockville, Md.) were cultured and grown in Luria broth as previously described (22). In subsets of experiments, Enterococcus faecalis (strain PCI 1326 from American Type Culture Collection, Rockville, Md.) were cultured as previously described (23). Caco2 epithelial cells were grown to confluence of 60 mm petri dishes and exposed to indicated experimental conditions. Cells were washed once with HBSS, and washed bacteria were added to epithelial monolayers at a ratio of 50 bacteria per adherent epithelial cell. Incubations were allowed to proceed for 90 minutes or as indicated on a rotating platform. Parallel samples omitting epithelial cells were used as controls. Following incubation, supernatants were collected and epithelial cells were hypotonically lysed with 1 ml ice cold water. Bacteria were pelleted, dilutions of both pellets and supernatants were plated, incubated overnight at 37° C., and colony counts were performed. In subsets of experiments, anti-BPI antisera (1:300 in HBSS) or anti-BPI antisera pre-adsorbed with rBPI (1:300 in HBSS), as indicated, were added 30 minutes prior to incubation with bacteria. Data are presented as the mean±S.E.M. CFU.

BPI [3] = test: Semi-quantitative RT-PCR of BPI transcript in KB cells; assay type: cell-based, human
BPI [4] = test: Confocal microscopy of surface BPI on non-permeabilized Caco2 cells; assay type: cell-based, human; conditions: 1 μM for 24 hr
Experimental: OKF6 or Caco2 cells were grown to confluence on acid washed 12 mm glass coverslips. Monolayers were exposed to indicated experimental conditions, washed once in phosphate buffered saline, and fixed for 10 minutes at room temperature in 1% paraformaldehyde in cacodylate buffer (0.1M sodium cacodylate; pH 7.4, 0.72% sucrose). After washing twice with PBS, the cells were incubated for 1 hour with rabbit polyclonal BPI antisera (1:300 dilution) or control sera (equivalent dilution depleted of specific antibody through 3 consecutive adsorptions with sepharose beads covalently linked to rBPI via cyanogens bromide coupling, kit from Pierce Chemical Co., Rockford, Ill.). After washing, the monolayers were incubated with goat anti-rabbit Oregon Green (1 μg/ml, Molecular Probes, Eugene, Oreg.). Cells were imaged on a BioRad MRC-600 confocal fluorescence microscope.

BPI [5] = test: Immunoprecipitation of biotinylated plasma membrane protein and avidin blot for surface BPI in T84 cells; assay type: cell-based, human; conditions: 1 μM ATLa, at 36 h
Experimental: Epithelial cells were grown to confluence on 45 cm^2 permeable supports, and exposed to ATLa or vehicle (0.01% EtOH), as indicated. Cells were washed extensively in HBSS, cooled to 4° C., and extracellular proteins were biotinylated (1 mM NHS-biotin (Pierce Chemical Co., Rockford, Ill.) in HBSS) as previously described (18). Plasma membranes were isolated using nitrogen cavitation (200 psi, 8 min., 4° C.) as previously described (18). Recombinant human BPI (100 ng/ml, was directly biotinylated and excess biotin was removed by multiple washes on a 5 kD cut-off membrane filter (Amicon, Beverly Mass.). Fractions were pre-cleared with 50 μl pre-equilibrated protein-G sepharose (Pharmacia, Uppsala Sweden). Immunoprecipitation of BPI was performed with goat polyclonal anti-BPI followed by addition of 50 μl pre-equilibrated protein-G sepharose and overnight incubation. Washed immunoprecipitates were boiled in non-reducing sample buffer (2.5% SDS, 0.38 M Tris pH 6.8, 20% glycerol, and 0.1% bromophenol blue), resolved by non-reducing SDS-PAGE (18% polyacrylamide gel), transferred to nitrocellulose, and blocked overnight in blocking buffer. Biotinylated proteins were labeled with streptavidin-peroxidase (Pierce Chemical Co., Rockford, Ill.) and visualized by enhanced chemiluminescence (ECL; Amersham, Arlington Heights, Ill.).

## pertussis toxin [reference compound]
BPI [1]; Caco2 pre-exposure to pertussis toxin 1 μM, 30 min, ATLa 1 μM, 18 h
  decrease in BPI induction by ATLa: 65%

## O=C(O)CCC[C@H](O)[C@H](O)/C=C/C=C/C=C\C=C\[C@@H](O)COc1ccc(F)cc1 [ATLa, 15-epi-16-(para-fluoro)-phenoxy-LXA4]
BPI [2]; 4 hrs exposure
  BPI mRNA increase over control (microarray): 3.2 fold
BPI [2]; 8 hrs exposure
  BPI mRNA increase over control (microarray): 2.9 fold
bacteria
  direct bactericidal activity or non-specific agglutination: not explained by bactericidal activity or non-specific agglutination
Salmonella typhimurium
  increase in killing of S. typhimurium: ~60%
BPI [3]; KB cells, 1 μM, 8 h, compared to vehicle control
  maximal increase of BPI transcript relative to β-actin by densitometry: 4.3 fold
BPI [3]; KB cells, 8 hr, 28 cycles of PCR, approximate, read-out: EC50 of BPI transcript induction (dose response)
  EC50: ~50 nM
BPI [1]; OKF6, T84 and Caco2 cells, 1 μM, 26 cycles of PCR
  BPI induction relative to β-actin: prominent pattern of time-dependent BPI induction
BPI [4]
  surface-bound BPI expression: increased expression
BPI [5]
  maximal increase of ~55 kDa surface protein consistent with BPI by densitometry: 12.5 fold

## CCCCCC/C=C/C=C/C=C/C=C/[C@@H](O)[C@@H](O)CCCC(=O)O [15-deoxy-LXA4, reference compound]
BPI [3]; epithelial exposure to similar concentrations as ATLa, data not shown
  induction of BPI at the mRNA level: no induction
